Measured values as given in patent publication US20090054376A1, “BENZOFURAN DERIVATIVES WITH THERAPEUTIC ACTIVITIES” (Pharmos Corporation, priority 2005, published 2009).

How the values were obtained:
IL-10 = assay: Gene expression in LPS activated RAW 264.7 macrophages, IL-10; assay type: cell-based, mouse; details: RAW 264.7, 10 μM, LPS 1 μg/ml, RNA 3 hrs after activation
Description: RAW 264.7 macrophages, a mouse cell line (ATCC # TIB 71), were grown in Dulbecco's modified Eagle's medium (DMEM) with 4 mM L-glutamine adjusted to contain 1.5 g/L sodium bicarbonate, 4.5 g/L glucose, and 10% heat inactivated fetal bovine serum. Cells were grown in tissue culture flasks and seeded at appropriate density into 6 wells tissue culture plates. Four million Raw cells in half a milliliter were stimulated with 1 μg/ml LPS E. coli 055:B5 (DIFCO Laboratories). The mouse macrophages were pre-treated for one hour with controls or 10 μM of test compounds, and later on activated with LPS. RNA samples were extracted from the cells 3 hrs after activation and gene expression levels were analyzed by real-time RT-PCR. In parallel, supernatants were collected and secretion of inflammatory mediators was analyzed using ELISA techniques according to the instructions of the kit manufacturer.
Total RNA is prepared using SV total RNA isolation system (Promega). The cells were homogenized in lysis buffer. […] RNA concentrations were determined using GeneQuant II (Pharmacia-Amersham). […] Quantitative real-time RT-PCR included 1 μl of the cDNA, 300 nM of the appropriate forward and reverse primers (according to the gene monitored) and 7.5 μl of the reaction mix containing buffer, nucleotides, Taq polymerase and SYBER green (SYBER Green master mix, Applied Biosystems), in a total reaction volume of 15 μl. […]

[1] = system: CFA induced rheumatoid arthritis; assay: CFA induced rheumatoid arthritis; assay type: in vivo, Female Lewis rats
Description: Female Lewis rats (125 g average body weight, Harlan, Israel), at least eight per treatment group were used in this study. CFA was prepared by combining 100 mg of Mycobacterium Tuberculosis (Difco) with 5 ml of incomplete Freund's adjuvant and grinding for about 3 minutes the resulting mixture until a brownish suspension was obtained. The CFA suspension was administered s.c. at the base of the tail, 0.2 ml/animal. Three tests were performed to evaluate the pain and inflammation caused by the disease. These tests were performed before CFA injection to establish baseline values and 14, 21 and 28 days after disease induction. Compounds of the invention were administered daily for fourteen days p.o. at a dose of 10 mg/kg starting on day 14, after disease onset. A group of animals treated with vehicle only at 5 ml/kg served as control.
The parameters monitored were as detailed in Example 18 and include paw edema and redness, and response to thermal and mechanical pain stimuli. At the end of the treatment period the animals were euthanized. The paws were cut and stored in a solution of 4% formalin until histopathological evaluation.
The differences among various treatment groups between the severity of the clinical signs, as expressed by paw swelling and redness, as well as the differences in pain responses, as expressed by Latency Time (sec) and Force (g) needed to observe withdrawal of the paw following thermal and mechanical stimuli, and finally the tissue damage, as expressed by the histological scores, were compared using analysis of variance ANOVA followed by post-hoc t-Test. A value of p<0.05 is considered to be statistically significant.

[2] = system: visceral pain writhing responses; assay: Tolerance: repeated administration in the model of Visceral Pain; assay type: in vivo, mice; details: tested day 11 at 2 mg/kg i.v.
Description: Male ICR mice (average body weight 25 g, Harlan, Israel) were pretreated by i.v. injection at volume dose of 5 ml/kg of vehicle, control and test compounds at various doses. Other routes of administration were tested for selected compounds including i.m. or s.c. injections at volume dose of 2.5 ml/kg and p.o. gavage at volume dose of 5 ml/kg. Compounds were dissolved in CREMOPHOR®:Ethanol and diluted 1:20 in saline prior to injection or gavage. Compounds administered i.v. were injected fifteen minutes before pain induction, whereas compounds administered i.m., s.c. or p.o. were supplied thirty minutes before pain induction, unless otherwise indicated. Each treatment group, except for controls comprising at least 30 animals, was composed of at least 6 animals. Fifteen or thirty minutes after drug administration, depending on the route of administration, the mice were injected i.p. with 10 ml/kg of 0.6% acetic acid and the number of visceral pain related behaviors (writhing movements globally defined as WR, i.e. stretching, contractions of the abdomen accompanied by an elongation of the body and extension of the hind limbs) was counted over a period of 5 minutes, starting 5 minutes after the acetic acid administration. These visceral pain related behaviors were globally defined as writhing responses (WR). The results are expressed as mean number of writhing responses ±SEM. Data were analyzed using analysis of variance (ANOVA) followed by post-hoc Fisher test.
Briefly compounds of the invention were administered at 10 mg/kg i.p. daily for 10 days and their analgesic activity was tested on day 11 as described in Example 17 (namely at 2 mg/kg i.v.). […] Each treatment group comprised 10 animals.

Structure (SMILES) | Percent inhibition of gene expression, IL-10 (IL-10) [%] | decrease in clinical score as compared to first day of treatment ([1]; after two weeks of treatment, 10 mg/kg p.o.) [%] | average clinical score regarding the edema ([1]; after two weeks of treatment, 10 mg/kg p.o. daily, vehicle 6.67±1.85) | average clinical score regarding the edema ([1]; day 14, at initiation of treatment, 10 mg/kg p.o. group, vehicle 6.00±1.18) | difference in average clinical score in favor of treated animals ([1]; day 21, after a week of treatment, 10 mg/kg p.o. daily, vs vehicle) [unit] | Force increase over baseline ([1]; day 28, 10 mg/kg p.o.) | Latency increase over baseline values of day 14 ([1]; day 28, 10 mg/kg p.o.) | Latency prolonged following thermal stimulus ([1]; day 28 vs day 14, 10 mg/kg p.o.) | increase of Force needed to elicit a withdrawal response ([1]; day 28 vs day 14, 10 mg/kg p.o., mechanical stimulus) [grams] | writhing responses on day 11 ([2]; repeated administration daily for 10 days (10 mg/kg i.p.), vehicle 29.75±1.09) | reduction in pain response after repeated administration ([2]; repeated administration daily for 10 days) [%]
CCCCC(C)(C)c1cc(O)c2c(c1)OC1C2CCC(C)(C)C1O (centres unmarked) [Compound C6S-7, 3-(1,1-dimethylpentyl)-7,7-dimethyl-5a,6,7,8,9,9a-hexahydro-dibenzofuran-1,6-diol] | 33 |  |  |  |  |  |  |  |  |  | 
CCCCCCC(C)(C)c1cc(O)c2c(c1)OC1C(O)CCCCC21 (stereo not drawn) [Compound C7S-2, 2-(1,1-dimethylheptyl)-5,6,7,8,9,9a-hexahydro-4bH-10-oxa-benzo[α]azulen-4,9-diol] |  | 44 | 3.29±0.97 | 5.86±1.70 | 1.89 | about 63% | more than 32% | about 5 seconds | 11.1 | 2.45±1.49 | 92
